Calls of active or inactive are those of the source. The calls are words filed in the database; no cut-off is given here.
Experiments:
4T1 [1] = experiment: Induction of G0/G1 phase cell cycle arrest in mouse 4T1 cells assessed as decrease in S phase cells at 1.25 to 40 uM incubated for 24 hrs by flow cytometry; format: functional, cell-based; settings: dose 1.25-40 µM
[2] = Cmax in Sprague-Dawley rat plasma at 10 mg/kg, po measured upto 24 hrs by LC-MS/MS analysis; format: ADME, organism-based
[3] = Toxicity in BALB/c mouse implanted with mouse 4T1 cells assessed as increase in splenic red pulp at 0.2 mmol/Kg, po administered once every day for 14 days; format: organism-based; settings: in vivo, 336 h, time 14 day
[4] = Toxicity in BALB/c mouse implanted with mouse 4T1 cells assessed as increase in neutrophil granulocytes at 0.2 mmol/Kg, po administered once every day for 14 days by routine blood analysis; format: organism-based; settings: in vivo, 336 h, time 14 day
4T1 [5] = experiment: Induction of mitochondrial membrane potential loss in mouse 4T1 cells assessed as green fluorescence at 10 uM incubated for 24 hrs by JC-1 staining based flow cytometric analysis (reference value: 11.7%); format: cell-based
4T1 [6] = experiment: Antitumor activity against mouse 4T1 cells implanted in BALB/c mouse assessed as tumor growth inhibition at 0.2 mmol/Kg, po administered once every day for 14 days relative to control; format: functional; settings: 4T1, 336 h, time 14 day, read-out: TGI
[7] = Prodrug conversion in serum (unknown origin) assessed as drug hydrolysis by measuring stachydrine release at 3 to 20 hrs; format: ADME, cell-free; settings: time 3-20 hrs
[8] = Toxicity in BALB/c mouse implanted with mouse 4T1 cells assessed as effect on CREA level at 0.2 mmol/Kg, po administered once every day for 14 days by routine blood analysis; format: organism-based; settings: in vivo, 336 h, time 14 day
[9] = Toxicity in BALB/c mouse implanted with mouse 4T1 cells assessed as increase in AST level at 0.2 mmol/Kg, po administered once every day for 14 days by routine blood analysis; format: organism-based; settings: in vivo, 336 h, time 14 day
[10] = Toxicity against BALB/c mouse implanted with mouse 4T1 cells assessed as animal death at 0.2 mmol/Kg, po administered once every day for 14 days; format: organism-based; settings: in vivo, 336 h, time 14 day
4T1 [11] = experiment: Inhibition of cell migration in mouse 4T1 cells assessed as reduction in wound healing incubated for 24 hrs by microscopic analysis; format: functional, cell-based
[12] = Toxicity in BALB/c mouse implanted with mouse 4T1 cells assessed as increase in lymphocytes at 0.2 mmol/Kg, po administered once every day for 14 days by routine blood analysis; format: organism-based; settings: in vivo, 336 h, time 14 day
4T1 [13] = experiment: Antitumor activity against mouse 4T1 cells implanted in BALB/c mouse assessed as change in tumor weight at 0.2 mmol/Kg, po administered once every day for 14 days; format: functional, organism-based; settings: time 14.0 day
4T1 [14] = experiment: Inhibition of cell invasion in mouse 4T1 cells at 30 micromol/mL incubated for 24 hrs by microscopic analysis; format: functional, cell-based; settings: dose 30.0 µmol/ml
4T1 [15] = experiment: Induction of apoptosis in mouse 4T1 cells assessed as apoptotic rate at 40 micromol/L incubated for 24 hrs by Annexin-V/PI staining based flow cytometry relative to control; format: functional; settings: dose 40 µmol/L, at 40 µM
[16] = Toxicity in BALB/c mouse implanted with mouse 4T1 cells assessed as change in kidney histopathology at 0.2 mmol/Kg, po administered once every day for 14 days; format: organism-based; settings: in vivo, 336 h, time 14 day
[17] = Oral bioavailability in Sprague-Dawley rat at 10 mg/kg measured upto 24 hrs by LC-MS/MS analysis; format: ADME, organism-based; settings: in vivo
4T1 [18] = experiment: Antitumor activity against mouse 4T1 cells implanted in BALB/c mouse assessed as appearance of larger void areas in tumor at 0.2 mmol/Kg, po administered once daily for 14 days by histological staining based analysis; format: functional, organism-based; settings: time 14.0 day
4T1 [19] = experiment: Antitumor activity against mouse 4T1 cells implanted in BALB/c mouse assessed as tumor cell necrosis at 0.2 mmol/Kg, po administered once every day for 14 days by histological staining based analysis; format: functional, organism-based; settings: time 14.0 day
[20] = Half life in Sprague-Dawley rat plasma at 10 mg/kg, po measured upto 24 hrs by LC-MS/MS analysis; format: ADME, organism-based
4T1 [21] = experiment: Anticancer activity against mouse 4T1 cells assessed as inhibition of cell growth incubated for 24 hrs by CCK-8 assay; format: functional, cell-based; settings: 4T1, 24 h
[22] = Toxicity in BALB/c mouse implanted with mouse 4T1 cells assessed as change in liver histopathology at 0.2 mmol/Kg, po administered once every day for 14 days; format: organism-based; settings: in vivo, 336 h, time 14 day
4T1 [23] = experiment: Induction of G0/G1 phase cell cycle arrest in mouse 4T1 cells assessed as decrease in G2/M phase cells at 1.25 to 40 uM incubated for 24 hrs by flow cytometry; format: functional, cell-based; settings: dose 1.25-40 µM
[24] = Toxicity in BALB/c mouse implanted with mouse 4T1 cells assessed as increase in mean platelet volume at 0.2 mmol/Kg, po administered once every day for 14 days by routine blood analysis; format: organism-based; settings: in vivo, 336 h, time 14 day
4T1 [25] = experiment: Induction of apoptosis in mouse 4T1 cells assessed as apoptotic rate at 1.25 micromol/L incubated for 24 hrs by Annexin-V/PI staining based flow cytometry relative to control; format: functional; settings: dose 1.25 µmol/L, at 1.25 µM
4T1 [26] = experiment: Anticancer activity against mouse 4T1 cells assessed as inhibition of cell growth incubated for 48 hrs by CCK-8 assay; format: functional, cell-based; settings: 4T1, 48 h
4T1 [27] = experiment: Anticancer activity against mouse 4T1 cells assessed as inhibition of cell growth incubated for 72 hrs by CCK-8 assay; format: functional, cell-based; settings: 4T1, 72 h
[28] = Toxicity in BALB/c mouse implanted with mouse 4T1 cells assessed as increase in monocytes at 0.2 mmol/Kg, po administered once every day for 14 days by routine blood analysis; format: organism-based; settings: in vivo, 336 h, time 14 day
4T1 [29] = experiment: Induction of mitochondrial membrane potential loss in mouse 4T1 cells assessed as red fluorescence at 10 uM incubated for 24 hrs by JC-1 staining based flow cytometric analysis (Rvb= 87.9%); format: cell-based
[30] = AUC (0 to t) in Sprague-Dawley rat plasma at 10 mg/kg, po measured upto 24 hrs by LC-MS/MS analysis; format: ADME, organism-based
[31] = Tmax in Sprague-Dawley rat plasma at 10 mg/kg, po measured upto 24 hrs by LC-MS/MS analysis; format: ADME, organism-based
[32] = Toxicity in BALB/c mouse implanted with mouse 4T1 cells assessed as body weight loss at 0.2 mmol/Kg, po administered once daily for 14 days; format: organism-based; settings: in vivo, 336 h, time 14 day
4T1 [33] = experiment: Induction of apoptosis in mouse 4T1 cells assessed as caspase-3 activation at 10 uM incubated for 24 hrs by Western blot analysis; format: functional, cell-based
[34] = Prodrug conversion in cell culture medium containing 10% FBS assessed as drug hydrolysis by measuring stachydrine release at 3 to 20 hrs; format: ADME; settings: cattle; time 3-20 hrs
4T1 [35] = experiment: Induction of cell cycle arrest in mouse 4T1 cells assessed as accumulation of cells in G0/G1 phase at 40 micromol/L incubated for 24 hrs by flow cytometry (reference value: 53.6%); format: functional; settings: dose 40 µmol/L, at 40 µM
[36] = Toxicity in BALB/c mouse implanted with mouse 4T1 cells assessed as change in heart histopathology at 0.2 mmol/Kg, po administered once every day for 14 days; format: organism-based; settings: in vivo, 336 h, time 14 day
4T1 [37] = experiment: Antitumor activity against mouse 4T1 cells implanted in BALB/c mouse assessed as tumor cell shrinkage at 0.2 mmol/Kg, po administered once every day for 14 days by histological staining based analysis; format: functional, organism-based; settings: time 14.0 day
4T1 [38] = experiment: Induction of apoptosis in mouse 4T1 cells assessed as apoptotic rate at 10 micromol/L incubated for 24 hrs by Annexin-V/PI staining based flow cytometry relative to control; format: functional; settings: dose 10 µmol/L, at 10 µM

In the case of `CCCCCCCCCCCCOC(=O)C1CCC[N+]1(C)C.[Cl-]` (stereo not drawn), the Activity (4T1 [1]) is reported as “Active”, the Cmax [2] is reported as 6100 ng/mL and the Activity [3] is reported as “Toxic”. The Activity [4] was “Non-Toxic”, the Activity (4T1 [5]) was 56.8% and the inhibition in vivo at 200 µmol/kg (4T1 [6]) was 56.3%. For the same compound, the Drug metabolism [7] was “Metabolite_Detected”, the Activity [8] was “Non-Toxic” and the Activity [9] was “Toxic”. The Activity [10] was “Non-Toxic”, the inhibition (4T1 [11]) was “Dose-Dependent Effect” and the Activity [12] was “Non-Toxic”. The Activity (4T1 [13]) was “Active”, the inhibition (4T1 [14]) was “Active” and the Activity (4T1 [15]) was 71.3%. The Activity [16] was “Non-Toxic”, the bioavailability [17] was 79.6% and the Activity (4T1 [18]) was “Active”. For the same compound, the Activity (4T1 [19]) was “Active”, the half-life [20] was 457 min and the IC50 (4T1 [21]) was 24.7 µM. The Activity [22] was “Non-Toxic”, the Activity (4T1 [23]) was “Active” and the Activity [24] was “Non-Toxic”. It also gave an Activity (4T1 [25]) of 38.5%, an IC50 (4T1 [26]) of 17.9 µM and an IC50 (4T1 [27]) of 8.35 µM. The Activity [28] was “Non-Toxic”, the Activity (4T1 [29]) was 43.1% and the AUC(0-t) at 24 h [30] was 14800 ng·h/mL. For the same compound, the Tmax [31] was 2 h, the Activity [32] was “Toxic” and the Activity (4T1 [33]) was “Active”. The Drug metabolism [34] was “Metabolite_Detected”, the Activity (4T1 [35]) was 64.5% and the Activity [36] was “Non-Toxic”. For the same compound, the Activity (4T1 [37]) was “Active” and the Activity (4T1 [38]) was 59%.

From ChEMBL document CHEMBL5625202, “Synthesis, characterization and anti-breast cancer activities of stachydrine derivatives” (Eur J Med Chem, 2023)
